Test results taken from patent publication US20060115502A1, “Cosmetic composition based on cirsimarin” (GATTEFOSSE SAS, priority 2003, published 2006).

What was measured:
[1] = test system: lipolysis; details: documents by Nogowski and Jacobson; cited from earlier work
[2] = molecular target: T1, A1 receptor (Homo sapiens, UniProt P30542); details: from literature; cited from earlier work
T1 sequence (P30542 1-326): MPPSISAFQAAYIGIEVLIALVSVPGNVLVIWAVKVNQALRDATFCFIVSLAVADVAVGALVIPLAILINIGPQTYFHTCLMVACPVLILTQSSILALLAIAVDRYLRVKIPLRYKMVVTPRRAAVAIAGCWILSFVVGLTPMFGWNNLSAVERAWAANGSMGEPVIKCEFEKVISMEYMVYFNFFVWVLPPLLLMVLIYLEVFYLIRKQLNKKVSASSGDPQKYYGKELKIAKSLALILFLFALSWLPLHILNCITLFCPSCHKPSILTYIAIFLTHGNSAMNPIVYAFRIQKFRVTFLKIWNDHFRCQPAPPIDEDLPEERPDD

[3] = test system: isolated adipocytes; experiment: Lipolytic activity in vitro on isolated adipocytes (fatty acids released, NEFA C kit); type: cell-based, rats; details: cirsimarin tested at 0.5 mM and 0.1 mM; 1 hour at 37° C.; FIG. 2
Description: a. Positive references and products to be assessed • Noradrenalin (syn. Norepinephrine NE): this molecule, with a molar mass of […], is assessed at the final concentration of 1 μM in a Krebs-Ringer buffer at 4% albumin. • Caffeine: this molecule, with a molar mass of 194.2 g, is assessed at the final concentration of 0.5 mM in a Krebs-Ringer buffer at 4% albumin. • Theophylline: this molecule, with a molar mass of 180.2, is assessed at the final concentration of 0.5 mM in a Krebs-Ringer buffer at 4% albumin. • Cirsimarin: this molecule, with a molar mass of 476.44, is tested at 0.5 mM and 0.1 mM. This molecule is first solubilized in a mixture of solvents: NaOH 0.2 M/DMSO (95/5; v/v). […]
The lipolytic activity is measured by the quantity of fatty acids released; for this, a NEFA C (Non Esterified Fatty Acid/Colorimetric) colorimetric dosage kit sold by Wako® Chemical GmbH is used.
The quantity of fatty acids present in tubes 0 minus that present in tubes 00 corresponds to the basal lipolysis of the adipocytes in the buffer. The quantity of fatty acids present in tubes 0 solvent minus that present in tubes 00 corresponds to the basal lipolysis of the adipocytes in the buffer containing the cirsimarin solution solvent. The quantity of fatty acids released in reaction tubes minus that present in tubes 00 corresponds to the lipolysis induced by the molecules studied.

SMILES: O=c1c(-c2ccc(O)cc2)coc2cc(O)cc(O)c12 [genistein]
- lipolytic activity [1]: negligible lipolytic activity
- A1 receptor antagonist properties [2]: identified as an A1 receptor antagonist

SMILES: COc1cc2oc(-c3ccc(O[C@@H]4O[C@H](CO)[C@@H](O)[C@H](O)[C@H]4O)cc3)cc(=O)c2c(O)c1OC [cirsimarin, 5-hydroxy-6,7-dimethoxyflavone 4′-O-glucoside]
- lipolytic activity (quantity of fatty acids released) [3]: proven in vitro lipolytic activity
- A1 receptor antagonist properties [2]: A1 receptor antagonist properties
